Data taken from article PMC6422671 (British Journal of Clinical Pharmacology, 2019).

Assay: Clinical laboratory findings: chemistry; data mean (standard deviation)
Format: in vivo, healthy men
Text: Data are mean (standard deviation).

C[C@@H](N)c1cc(Cl)ccc1Cn1c(=S)[nH]c(=O)c2[nH]ccc21 [AZD4831]
ALP (45 mg fed, 24 h): 0.993 (0.202) µkat L^–1 | ALT (45 mg fed, 24 h): 0.324 (0.125) µkat L^–1 | AST (45 mg fed, 24 h): 0.281 (0.048) µkat L^–1 | Albumin (45 mg fed, 24 h): 41.2 (3.8) g L^–1 | Bilirubin (45 mg fed, 24 h): 9.7 (0.6) µmol L^–1 | CRP (45 mg fed, 24 h): 0.42 (0.20) mg L^–1 | Calcium (45 mg fed, 24 h): 2.30 (0.10) mmol L^–1 | Creatinine (45 mg fed, 24 h): 71.2 (11.4) µmol L^–1 | GGT (45 mg fed, 24 h): 0.310 (0.053) µkat L^–1 | Glucose (45 mg fed, 24 h): 5.06 (0.38) mmol L^–1 | Phosphate (45 mg fed, 24 h): 1.10 (0.08) mmol L^–1 | Potassium (45 mg fed, 24 h): 4.28 (0.26) mmol L^–1 | Sodium (45 mg fed, 24 h): 139.6 (1.6) mmol L^–1 | Urea (45 mg fed, 24 h): 4.04 (0.45) mmol L^–1 | ALP (45 mg fed, 48 h): 1.004 (0.205) µkat L^–1 | ALT (45 mg fed, 48 h): 0.325 (0.119) µkat L^–1 | AST (45 mg fed, 48 h): 0.296 (0.053) µkat L^–1 | Albumin (45 mg fed, 48 h): 42.1 (3.4) g L^–1 | Bilirubin (45 mg fed, 48 h): 9.5 (1.3) µmol L^–1 | CRP (45 mg fed, 48 h): 0.42 (0.22) mg L^–1 | Calcium (45 mg fed, 48 h): 2.33 (0.07) mmol L^–1 | Creatinine (45 mg fed, 48 h): 70.9 (9.3) µmol L^–1 | GGT (45 mg fed, 48 h): 0.303 (0.051) µkat L^–1 | Glucose (45 mg fed, 48 h): 5.27 (0.13) mmol L^–1 | Phosphate (45 mg fed, 48 h): 1.09 (0.05) mmol L^–1 | Potassium (45 mg fed, 48 h): 4.27 (0.05) mmol L^–1 | Sodium (45 mg fed, 48 h): 140.1 (1.4) mmol L^–1 | Urea (45 mg fed, 48 h): 4.19 (0.41) mmol L^–1 | ALP (45 mg fed, follow up): 1.103 (0.265) µkat L^–1 | ALT (45 mg fed, follow up): 0.364 (0.151) µkat L^–1 | AST (45 mg fed, follow up): 0.358 (0.049) µkat L^–1 | Albumin (45 mg fed, follow up): 44.1 (3.2) g L^–1 | Bilirubin (45 mg fed, follow up): 9.6 (2.3) µmol L^–1 | CRP (45 mg fed, follow up): 2.35 (3.10) mg L^–1 | Calcium (45 mg fed, follow up): 2.34 (0.08) mmol L^–1 | Creatinine (45 mg fed, follow up): 74.6 (5.0) µmol L^–1 | GFR (45 mg fed, follow up): 109 (15) mL min^–1 1.73m^–2 | GGT (45 mg fed, follow up): 0.316 (0.087) µkat L^–1 | Glucose (45 mg fed, follow up): 5.18 (0.25) mmol L^–1 | Phosphate (45 mg fed, follow up): 1.08 (0.11) mmol L^–1 | Potassium (45 mg fed, follow up): 4.34 (0.20) mmol L^–1 | Sodium (45 mg fed, follow up): 139.6 (0.6) mmol L^–1 | Urea (45 mg fed, follow up): 4.18 (0.78) mmol L^–1 | ALP (135 mg fasted, 24 h): 1.128 (0.226) µkat L^–1 | ALT (135 mg fasted, 24 h): 0.323 (0.137) µkat L^–1 | AST (135 mg fasted, 24 h): 0.304 (0.076) µkat L^–1 | Albumin (135 mg fasted, 24 h): 43.4 (2.4) g L^–1 | Bilirubin (135 mg fasted, 24 h): 12.2 (4.3) µmol L^–1 | CRP (135 mg fasted, 24 h): 0.60 (0.30) mg L^–1 | Calcium (135 mg fasted, 24 h): 2.36 (0.08) mmol L^–1 | Creatinine (135 mg fasted, 24 h): 83.6 (8.7) µmol L^–1 | GGT (135 mg fasted, 24 h): 0.318 (0.171) µkat L^–1 | Glucose (135 mg fasted, 24 h): 4.74 (0.58) mmol L^–1 | Phosphate (135 mg fasted, 24 h): 1.06 (0.23) mmol L^–1 | Potassium (135 mg fasted, 24 h): 4.11 (0.11) mmol L^–1 | Sodium (135 mg fasted, 24 h): 139.8 (0.7) mmol L^–1 | Urea (135 mg fasted, 24 h): 4.50 (0.56) mmol L^–1 | ALP (135 mg fasted, 48 h): 1.175 (0.250) µkat L^–1 | ALT (135 mg fasted, 48 h): 0.325 (0.191) µkat L^–1 | AST (135 mg fasted, 48 h): 0.308 (0.101) µkat L^–1 | Albumin (135 mg fasted, 48 h): 43.9 (2.8) g L^–1 | Bilirubin (135 mg fasted, 48 h): 11.6 (3.5) µmol L^–1 | CRP (135 mg fasted, 48 h): 0.50 (0.26) mg L^–1 | Calcium (135 mg fasted, 48 h): 2.37 (0.07) mmol L^–1 | Creatinine (135 mg fasted, 48 h): 81.0 (9.1) µmol L^–1 | GGT (135 mg fasted, 48 h): 0.325 (0.161) µkat L^–1 | Glucose (135 mg fasted, 48 h): 4.75 (0.37) mmol L^–1 | Phosphate (135 mg fasted, 48 h): 1.01 (0.19) mmol L^–1 | Potassium (135 mg fasted, 48 h): 4.06 (0.17) mmol L^–1 | Sodium (135 mg fasted, 48 h): 140.3 (1.4) mmol L^–1 | Urea (135 mg fasted, 48 h): 4.24 (0.74) mmol L^–1 | ALP (135 mg fasted, follow up): 1.239 (0.208) µkat L^–1 | ALT (135 mg fasted, follow up): 0.299 (0.129) µkat L^–1 | AST (135 mg fasted, follow up): 0.332 (0.064) µkat L^–1 | Albumin (135 mg fasted, follow up): 46.0 (2.6) g L^–1 | Bilirubin (135 mg fasted, follow up): 13.1 (5.1) µmol L^–1 | CRP (135 mg fasted, follow up): 8.94 (12.69) mg L^–1 | Calcium (135 mg fasted, follow up): 2.36 (0.11) mmol L^–1 | Creatinine (135 mg fasted, follow up): 85.1 (12.7) µmol L^–1 | GFR (135 mg fasted, follow up): 104 (22) mL min^–1 1.73m^–2 | GGT (135 mg fasted, follow up): 0.306 (0.143) µkat L^–1 | Glucose (135 mg fasted, follow up): 4.71 (0.54) mmol L^–1 | Phosphate (135 mg fasted, follow up): 1.00 (0.21) mmol L^–1 | Potassium (135 mg fasted, follow up): 4.07 (0.20) mmol L^–1 | Sodium (135 mg fasted, follow up): 140.2 (2.1) mmol L^–1 | Urea (135 mg fasted, follow up): 4.15 (1.35) mmol L^–1 | ALP (405 mg fasted, 24 h): 0.958 (0.139) µkat L^–1 | ALT (405 mg fasted, 24 h): 0.338 (0.119) µkat L^–1 | AST (405 mg fasted, 24 h): 0.363 (0.077) µkat L^–1 | Albumin (405 mg fasted, 24 h): 43.7 (2.3) g L^–1 | Bilirubin (405 mg fasted, 24 h): 14.9 (2.3) µmol L^–1 | CRP (405 mg fasted, 24 h): 1.17 (1.28) mg L^–1 | Calcium (405 mg fasted, 24 h): 2.39 (0.06) mmol L^–1 | Creatinine (405 mg fasted, 24 h): 86.2 (14.7) µmol L^–1 | GGT (405 mg fasted, 24 h): 0.298 (0.146) µkat L^–1 | Glucose (405 mg fasted, 24 h): 4.77 (0.30) mmol L^–1 | Phosphate (405 mg fasted, 24 h): 1.07 (0.11) mmol L^–1 | Potassium (405 mg fasted, 24 h): 4.42 (0.31) mmol L^–1 | Sodium (405 mg fasted, 24 h): 139.2 (1.0) mmol L^–1 | Urea (405 mg fasted, 24 h): 4.55 (1.01) mmol L^–1 | ALP (405 mg fasted, 48 h): 0.947 (0.186) µkat L^–1 | ALT (405 mg fasted, 48 h): 0.351 (0.097) µkat L^–1 | AST (405 mg fasted, 48 h): 0.366 (0.075) µkat L^–1 | Albumin (405 mg fasted, 48 h): 44.2 (2.7) g L^–1 | Bilirubin (405 mg fasted, 48 h): 13.4 (2.1) µmol L^–1 | CRP (405 mg fasted, 48 h): 1.19 (1.17) mg L^–1 | Calcium (405 mg fasted, 48 h): 2.40 (0.06) mmol L^–1 | Creatinine (405 mg fasted, 48 h): 81.1 (13.0) µmol L^–1 | GGT (405 mg fasted, 48 h): 0.290 (0.133) µkat L^–1 | Glucose (405 mg fasted, 48 h): 4.88 (0.35) mmol L^–1 | Phosphate (405 mg fasted, 48 h): 1.06 (0.15) mmol L^–1 | Potassium (405 mg fasted, 48 h): 4.33 (0.33) mmol L^–1 | Sodium (405 mg fasted, 48 h): 139.6 (1.0) mmol L^–1 | Urea (405 mg fasted, 48 h): 4.68 (1.07) mmol L^–1 | ALP (405 mg fasted, follow up): 1.037 (0.190) µkat L^–1 | ALT (405 mg fasted, follow up): 0.346 (0.071) µkat L^–1 | AST (405 mg fasted, follow up): 0.398 (0.062) µkat L^–1 | Albumin (405 mg fasted, follow up): 46.6 (2.7) g L^–1 | Bilirubin (405 mg fasted, follow up): 13.2 (3.1) µmol L^–1 | CRP (405 mg fasted, follow up): 1.17 (0.86) mg L^–1 | Calcium (405 mg fasted, follow up): 2.43 (0.10) mmol L^–1 | Creatinine (405 mg fasted, follow up): 81.1 (12.2) µmol L^–1 | GFR (405 mg fasted, follow up): 104 (12) mL min^–1 1.73m^–2 | GGT (405 mg fasted, follow up): 0.298 (0.137) µkat L^–1 | Glucose (405 mg fasted, follow up): 4.63 (0.39) mmol L^–1 | Phosphate (405 mg fasted, follow up): 1.12 (0.17) mmol L^–1 | Potassium (405 mg fasted, follow up): 4.39 (0.18) mmol L^–1 | Sodium (405 mg fasted, follow up): 141.5 (2.6) mmol L^–1 | Urea (405 mg fasted, follow up): 3.87 (0.96) mmol L^–1 | changes in clinical chemistry, haematology or urinary parameters (except serum uric acid at 135 mg or 405 mg): no systemic or dose‐related changes
